Experimental data as given in US11987586B1 (TAKEDA PHARMACEUTICAL COMPANY LIMITED, priority 2022, dated 2024).

Legend:
human OX2 receptor = biological target: T1, human OX2 receptor (Homo sapiens, UniProt O43614); assay: Measurement of orexin type 2 receptor agonist activity (calcium fluorescence, Fluo-4, FDSS); type: cell-based; conditions: 3 uM test compound; CHO cells expressing human OX2 receptor; DMSO = 0%, 10 nM orexin A (human) = 100%
T1 construct: expressed in transfected cells
T1 sequence (O43614 1-444): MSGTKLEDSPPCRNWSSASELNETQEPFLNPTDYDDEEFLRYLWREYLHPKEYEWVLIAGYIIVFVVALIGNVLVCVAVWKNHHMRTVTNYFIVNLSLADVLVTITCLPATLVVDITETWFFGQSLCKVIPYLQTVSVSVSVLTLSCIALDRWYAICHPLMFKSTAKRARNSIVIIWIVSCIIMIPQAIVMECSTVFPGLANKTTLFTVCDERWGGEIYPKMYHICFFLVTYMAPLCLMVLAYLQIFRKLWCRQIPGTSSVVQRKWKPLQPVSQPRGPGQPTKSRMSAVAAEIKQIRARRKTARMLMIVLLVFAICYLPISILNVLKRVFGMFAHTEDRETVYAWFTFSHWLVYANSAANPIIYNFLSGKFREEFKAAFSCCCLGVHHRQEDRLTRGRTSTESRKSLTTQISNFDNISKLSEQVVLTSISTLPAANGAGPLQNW
Procedure, shortened: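 Agonist activity (%) was normalised to the response to 10 nM final human orexin A (100%) and to the DMSO vehicle (0%). The response was measured as the Fluo-4 calcium signal, read kinetically over 1 min 40 s after compound addition to Fluo-4/probenecid-loaded stable CHO-K1 clones expressing human OX2 (aa 1-444).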

cynomolgus monkeys = assay: Evaluation of wake-promoting effects in cynomolgus monkeys (EEG, EMG, locomotor activity); type: in vivo, cynomolgus monkey; conditions: Macaca fascicularis, po; 1 mg/kg, p.o., at zeitgeber time 12; 4 hours after administration; male cynomolgus monkeys; read-out: Wakefulness time (% of vehicle treatment) (Mean, n = 2-4)
Experimental: The wake-promoting effects were evaluated by measuring the electroencephalogram (EEG), electromyogram (EMG) and locomotor activity in cynomolgus monkeys. Under isoflurane anesthesia (0.5-5%, Pfizer Japan Inc., Tokyo, Japan), male cynomolgus monkeys (2-3 years old, Hamri Co., Ltd., Ibaraki, Japan) were surgically implanted with radio-telemetry transmitters (L03-F3, Data Sciences International Inc., MN, USA). The two EEG electrodes were stereotaxically positioned at the parietal area and secured to the cranium with stainless-steel screws in contact with the dura. Bilateral EMG electrodes were implanted into the back cervical muscles. After at least a 1-month recovery period in home cages, the monkeys were habituated to the recording chamber (an acrylic cage 60W×55D×75H (cm)) located in a soundproof and electrically shielded room by the time animals sleep sufficiently in the experimental room. Cortical EEG, EMG and locomotor activity were recorded using the telemetry system (PhysioTel Digital telemetry platform, Data Sciences International Inc.). The signals were semi-automatically scored in 20-second epochs by a sleep scoring system (SleepSign, Kissei Comtec Co., Ltd., Nagano, Japan).
Test compound (1 or 3 mg/kg) suspended in 0.5% methylcellulose aqueous solution or vehicle (i.e., 0.5% methylcellulose aqueous solution) was administered orally (p.o.) to monkeys at zeitgeber time 12 in a volume of 5 mL/kg body weight with a pretest-posttest design (n=2-4), and then EEG, EMG and locomotor activity were recorded for 4 hours after administration. The time spent in wakefulness for 4 hours after administration (% of vehicle treatment) was calculated by using SleepSign.

**Q.** `CS(=O)(=O)N[C@@H]1CN2C(=O)N(c3noc4ccc(F)c(-c5c(F)cccc5F)c34)CC[C@@H]2C1(F)F` [Example 265, N-{(4aR,6R)-2-[4-(2,6-difluorophenyl)-5-fluoro-1,2-benzoxazol-3-yl]-5,5-difluoro-1-oxooctahydropyrrolo[1,2-c]pyrimidin-6-yl}methanesulfonamide] was tested. Which “OX2R agonist activity (3 uM, %)” value (human OX2 receptor) did it give?
**A.** The value was 107%.

**Q.** What about the response vs control in vivo at 1 mg/kg (cynomolgus monkeys) of the same compound?
**A.** Its response vs control in vivo at 1 mg/kg is 472%.

**Q.** Which results are given for `CCS(=O)(=O)N[C@@H]1Cn2c(cn(-c3noc4cc(F)cc(-c5c(F)cccc5F)c34)c2=O)C1(F)F` [Example 282, N-{(6R)-2-[4-(2,6-difluorophenyl)-6-fluoro-1,2-benzoxazol-3-yl]-7,7-difluoro-3-oxo-2,5,6,7-tetrahydro-3H-pyrrolo[1,2-c]imidazol-6-yl}ethanesulfonamide]?
**A.** OX2R agonist activity (3 uM, %) (human OX2 receptor): 105%; response vs control in vivo at 1 mg/kg (cynomolgus monkeys): 418%
